Here are results for 44 molecules from patent US11807606B2, “Sulfonamide derivatives for protein degradation” (DANA-FARBER CANCER INSTITUTE, INC., priority 2018, dated 2023).

Bounds are passed on as bounds.

Sequence of DCAF15 and RRM2 domain in RBM39 (Q66K64 whole entry, the tested form may be a part): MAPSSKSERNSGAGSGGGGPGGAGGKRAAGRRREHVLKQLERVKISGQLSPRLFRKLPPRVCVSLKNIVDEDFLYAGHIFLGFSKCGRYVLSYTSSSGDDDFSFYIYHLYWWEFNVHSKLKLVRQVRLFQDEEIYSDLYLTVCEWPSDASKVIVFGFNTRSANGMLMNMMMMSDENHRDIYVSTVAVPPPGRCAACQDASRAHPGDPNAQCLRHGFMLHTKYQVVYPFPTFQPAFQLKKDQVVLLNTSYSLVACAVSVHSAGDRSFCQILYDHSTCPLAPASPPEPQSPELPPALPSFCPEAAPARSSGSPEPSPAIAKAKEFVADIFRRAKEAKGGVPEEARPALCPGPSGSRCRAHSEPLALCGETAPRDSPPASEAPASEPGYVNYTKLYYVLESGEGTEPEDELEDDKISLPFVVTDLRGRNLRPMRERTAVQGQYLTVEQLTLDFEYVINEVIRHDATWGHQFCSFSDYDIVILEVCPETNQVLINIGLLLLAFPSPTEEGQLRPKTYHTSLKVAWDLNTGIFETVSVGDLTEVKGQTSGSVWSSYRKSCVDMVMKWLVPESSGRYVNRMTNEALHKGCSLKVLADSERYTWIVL
Sequence of DCAF15 and RRM2 domain in RBM39 (Q14498 250-328): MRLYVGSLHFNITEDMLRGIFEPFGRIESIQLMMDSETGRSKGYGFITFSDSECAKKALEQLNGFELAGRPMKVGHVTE
Sequence of DCAF15 and RRM2 domain in RBM39 (Q16531 whole entry partner, the tested form may be a part): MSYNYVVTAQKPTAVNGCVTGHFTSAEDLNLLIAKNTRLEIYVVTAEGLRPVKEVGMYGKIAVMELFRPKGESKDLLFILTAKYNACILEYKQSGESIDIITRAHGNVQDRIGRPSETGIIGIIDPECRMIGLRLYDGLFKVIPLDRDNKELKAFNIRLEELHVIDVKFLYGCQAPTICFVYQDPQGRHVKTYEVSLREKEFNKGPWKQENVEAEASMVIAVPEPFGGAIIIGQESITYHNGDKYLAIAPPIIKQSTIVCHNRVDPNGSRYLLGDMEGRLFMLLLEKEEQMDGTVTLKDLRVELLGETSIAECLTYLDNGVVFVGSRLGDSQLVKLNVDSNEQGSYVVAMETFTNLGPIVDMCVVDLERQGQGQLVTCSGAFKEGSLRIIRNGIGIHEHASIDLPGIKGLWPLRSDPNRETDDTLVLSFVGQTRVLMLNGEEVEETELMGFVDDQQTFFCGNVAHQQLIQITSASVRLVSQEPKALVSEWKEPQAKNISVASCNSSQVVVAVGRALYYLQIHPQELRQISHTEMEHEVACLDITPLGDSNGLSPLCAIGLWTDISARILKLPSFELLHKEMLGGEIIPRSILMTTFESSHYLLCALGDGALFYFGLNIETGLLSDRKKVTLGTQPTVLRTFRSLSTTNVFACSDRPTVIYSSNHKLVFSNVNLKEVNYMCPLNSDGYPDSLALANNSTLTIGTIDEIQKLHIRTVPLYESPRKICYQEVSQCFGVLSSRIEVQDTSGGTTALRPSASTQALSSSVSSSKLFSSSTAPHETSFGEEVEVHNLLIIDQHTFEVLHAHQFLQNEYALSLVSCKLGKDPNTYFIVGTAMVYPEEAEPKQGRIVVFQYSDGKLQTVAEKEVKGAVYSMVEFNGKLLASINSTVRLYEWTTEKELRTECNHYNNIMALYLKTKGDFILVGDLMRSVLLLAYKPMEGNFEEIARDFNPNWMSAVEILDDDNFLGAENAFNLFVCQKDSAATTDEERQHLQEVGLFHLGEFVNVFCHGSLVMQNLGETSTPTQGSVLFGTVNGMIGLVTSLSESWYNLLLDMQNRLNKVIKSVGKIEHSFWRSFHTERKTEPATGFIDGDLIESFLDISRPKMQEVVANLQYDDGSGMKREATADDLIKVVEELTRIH

This test has as its target DCAF15 and RRM2 domain in RBM39 (Homo sapiens (Human), UniProt Q14498+Q66K64). The test is described as follows: TR-FRET biochemical assay, DCAF15 activity (recruitment of RBM39 RRM2 domain to DCAF15). The class given is binding. The following applies: TR-FRET 520/490 nm ratio; biotinylated DCAF15 200 nM, Bodipy-FL RBM39 RRM2 200 nM, Tb-streptavidin 2 nM. The protocol: Increasing concentrations of compounds were added to pre-mixed biotinylated DCAF15 at 200 nM, Bodipy-FL-labelled RRM2 domain in RBM39 at 200 nM, and terbium (Tb)-coupled streptavidin at 2 nM (Invitrogen) in 384-well microplates in a buffer containing 50 mM Tris pH 7.5, 100 mM NaCl, 0.1% pluronic acid and 2% DMSO. Before TR-FRET measurements were conducted, the reactions were incubated for 15 min at room temperature. After excitation of terbium (Tb) fluorescence at 337 nm, emission at 490 nm (Tb) and 520 nm (Bodipy-FL) were recorded with a 70 μs delay to reduce background fluorescence and the reaction was followed over 1 h by recording 60 technical replicates of each data point using a PHERAstar FS microplate reader (BMG Labtech). The TR-FRET signal of each data point was extracted by calculating the 520/490 nm ratio. Data were analyzed with GraphPad Prism 7.
Consider `Cc1ccc(NS(=O)(=O)c2cccc(C#N)c2)c2[nH]ccc12`, for which the half-maximal effective concentration (EC50) (as a rule, the concentration at which the effect is half-maximal) is over 10 µM. The value for `Cc1ccc(NS(=O)(=O)c2cccc(N)c2)c2[nH]cc(C#N)c12` was 1 to 10 µM; that for `Cc1ccc(NS(=O)(=O)c2ccccc2Br)c2[nH]cc(C#N)c12` was over 10 µM.

In the case of `N#Cc1cccc(S(=O)(=O)Nc2ccc3[nH]cc(C#N)c3c2)c1`, the EC50 is over 10 µM.

As for `N#Cc1cccc(S(=O)(=O)Nc2cc(-c3ccccc3)cc3c(C#N)c[nH]c23)c1`, the concentration giving a half-maximal response (EC50) was over 10 µM. Take `CC(=O)Nc1ccc(C)c2c(C#N)c[nH]c12`: the 50% effective concentration (EC50) was over 10 µM. The value for `Cc1ccc(NS(=O)(=O)c2ccccc2)c2[nH]cc(C#N)c12` was 1 to 10 µM; that for `O=S(=O)(Nc1ncnc2[nH]ccc12)c1ccccc1` was over 10 µM. With `N#Cc1cccc(S(=O)(=O)Nc2cc(F)cc3c2NC(=O)C3)c1`, the EC50 was over 10 µM. For the molecule `Cc1ccc(NS(=O)(=O)c2ccccc2[N+](=O)[O-])c2[nH]cc(C#N)c12`, the half-maximal effective concentration (EC50) was over 10 µM. On to `Cc1ccc(NC(=O)c2cccc(C#N)c2)c2[nH]cc(C#N)c12`, for which the EC50 is over 10 µM. Consider `CNC(=O)c1cccc(S(=O)(=O)Nc2ccc(C)c3c(C#N)c[nH]c23)c1`, for which the concentration giving a half-maximal response (EC50) is 1 to 10 µM. In the case of `Cc1ccc(NS(=O)(=O)c2ccc(F)cc2F)c2[nH]cc(C#N)c12`, the EC50 lay in the range of 1 to 10 µM. Consider `COCCNc1ccc(S(=O)(=O)Nc2ccc(C)c3c(C#N)c[nH]c23)cc1C#N`, for which the concentration giving a half-maximal response (EC50) was 1 to 10 µM. `N#Cc1cccc(S(=O)(=O)Nc2cc(-c3ccccc3)cc3cc[nH]c23)c1`: the EC50 was over 10 µM. In the case of `Cc1ccc(NS(=O)(=O)c2cccc(C(F)(F)F)c2)c2[nH]cc(C#N)c12`, the EC50 is 1 to 10 µM.

On to `N#Cc1cccc(S(=O)(=O)Nc2ccc3c(C#N)c[nH]c3c2)c1`, for which the EC50 was over 10 µM. In the case of `N#Cc1cccc(S(=O)(=O)Nc2cccc3c(Cl)n[nH]c23)c1`, the half-maximal effective concentration (EC50) was over 10 µM. With `N#Cc1cccc(S(=O)(=O)Nc2ncnc3[nH]cc(Cl)c23)c1`, the 50% effective concentration (EC50) was over 10 µM. For `Cc1ccc(NS(=O)(=O)c2ccccc2C(F)(F)F)c2[nH]cc(C#N)c12`, the EC50 is over 10 µM.

For `N#Cc1cccc(S(=O)(=O)Nc2ccc(-c3ccccc3)c3cc[nH]c23)c1`, the concentration for a half-maximal effect (EC50) is over 10 µM. Regarding `N#Cc1cccc(S(=O)(=O)Nc2cccc3c(C#N)c[nH]c23)c1`, the half-maximal effective concentration (EC50) was over 10 µM. For `Cc1ccc(NS(C)(=O)=O)c2[nH]cc(C#N)c12`, the EC50 is over 10 µM. Turning to `COC(=O)c1ccc(S(=O)(=O)Nc2ccc(C)c3c(C#N)c[nH]c23)cc1`, the EC50 fell in the range of 1 to 10 µM.

For `Cc1ccc(NS(=O)(=O)c2cccc(C#N)c2)c2[nH]cc(Br)c12`, the EC50 was in the range of 1 to 10 µM. As to `N#Cc1cccc(S(=O)(=O)Nc2ncnc3[nH]ccc23)c1`, the concentration for a half-maximal effect (EC50) is over 10 µM.

`Cc1cccc(S(=O)(=O)Nc2ccc(C)c3c(C#N)c[nH]c23)c1`: the concentration for a half-maximal effect (EC50) is 1 to 10 µM. Turning to `Cc1ccc(NS(=O)(=O)c2ccccc2OC(F)(F)F)c2[nH]cc(C#N)c12`, the EC50 is over 10 µM. For the molecule `Cc1ccccc1S(=O)(=O)Nc1ccc(C)c2c(C#N)c[nH]c12`, the EC50 is over 10 µM.

For `N#Cc1cccc(S(=O)(=O)Nc2ccc(-c3ccccc3)c3c(C#N)c[nH]c23)c1`, the EC50 was over 10 µM.

Consider `N#Cc1cccc(S(=O)(=O)Nc2cccc3c2CNC3=O)c1`, for which the EC50 was over 10 µM. Regarding `CNC(=O)c1c[nH]c2c(NS(=O)(=O)c3cccc(C#N)c3)ccc(C)c12`, the EC50 was over 10 µM. `Cc1ccc(NS(=O)(=O)c2cccc(C#N)c2)c2[nH]cc(Cl)c12`: the EC50 fell in the range of 1 to 10 µM.

As for `N#Cc1cccc(S(=O)(=O)Nc2cccc(C(N)=O)c2N)c1`, the EC50 is over 10 µM. For the molecule `CCOC(=O)c1cc2cc(NS(=O)(=O)c3cccc(C#N)c3)ccc2[nH]1`, the EC50 is over 10 µM. With `N#Cc1cccc(S(=O)(=O)Nc2cc(Cl)cc3cc[nH]c23)c1`, the EC50 is over 10 µM. Turning to `Cc1ccc(NS(=O)(=O)c2ccc(C#N)cc2)c2[nH]cc(C#N)c12`, the EC50 lay in the range of 1 to 10 µM.

For `N#Cc1cccc(S(=O)(=O)Nc2cccn3ncnc23)c1`, the concentration for a half-maximal effect (EC50) was over 10 µM. For `N#Cc1cccc(S(=O)(=O)Nc2cc(Cl)cc3c(Br)c[nH]c23)c1`, the EC50 is over 10 µM.

Turning to `Cc1ccc(NS(=O)(=O)c2cccc(C#N)c2)c2[nH]cc(C=O)c12`, the EC50 was in the range of 1 to 10 µM.

As for `COC(=O)c1cccc(S(=O)(=O)Nc2ccc(C)c3c(C#N)c[nH]c23)c1`, the EC50 is 1 to 10 µM. On to `Cc1ccc(NS(=O)(=O)c2ccc([N+](=O)[O-])cc2)c2[nH]cc(C#N)c12`, for which the EC50 was in the range of 1 to 10 µM.

Regarding `Cc1ccc(NS(=O)(=O)c2cccc([N+](=O)[O-])c2)c2[nH]cc(C#N)c12`, the 50% effective concentration (EC50) is 1 to 10 µM. Consider `CCOC(=O)c1cc2c(C)ccc(NS(=O)(=O)c3cccc(C#N)c3)c2[nH]1`, for which the EC50 was over 10 µM.
